One assay addresses T1, sigma 1 (h) (Homo sapiens, UniProt Q99720).
T1 construct: incubating Jurkat cell membranes (10-20 mg protein per tube) with [^3H](+) pentazocine; endogenous in cells; host or cells: Jurkat cell membranes
Kind of assay: σ1 binding assay ([3H](+)pentazocine displacement, Jurkat cell membranes). Particulars: compound at 10 nM, [3H](+)pentazocine 15 nM, 37° C., 2 hours, read-out: Sigma-1 receptor % inhibition 10 nM. The protocol:
The σ1 binding assays were performed according to Ganapathy et al (Ganapathy, M. E. et al. (1999), J. Pharmacol. Exp. Ther., 28:251-260). The σ1 binding assay was carried out by incubating Jurkat cell membranes (10-20 mg protein per tube) with [^3H](+) pentazocine a selective S1R ligand (15 nM) and a range of concentration of tested compounds, at 37° C. for 2 hours in 5 mM tris/HCl buffer (pH=7.4). The inhibition of [3H]-(+)-pentazocine binding assay is mainly used to determine the inhibition constant (Ki) of potential SIR ligands. These assays are performed with a single concentration of [^3H]-(+)-pentazocine at a concentration near its KD and increasing concentrations of non-radioactive ligands.
T1 sequence (Q99720 whole entry): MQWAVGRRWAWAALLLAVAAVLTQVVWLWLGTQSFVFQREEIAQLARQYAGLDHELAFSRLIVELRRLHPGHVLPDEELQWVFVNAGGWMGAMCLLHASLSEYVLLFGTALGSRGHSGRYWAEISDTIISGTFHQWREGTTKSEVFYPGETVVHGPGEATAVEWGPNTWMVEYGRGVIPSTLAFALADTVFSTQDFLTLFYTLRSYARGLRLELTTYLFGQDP
Take `O=c1c(N2CCCCC2)ccnn1CCCCN1CCOCC1` [25a, 2-(4-morpholinobutyl)-4-(piperidin-1-yl)pyridazin-3(2H)-one]: the inhibition (commonly the share of the control response that was lost under treatment) at 0.01 µM amounted to 15.8%. For the molecule `CCN(CCCCn1nccc(-c2ccccc2)c1=O)Cc1ccccc1` [11b, 2-{4-[benzyl(ethyl)amino]butyl}-4-phenyl-2,3-dihydropyridazin-3-one], the inhibition at 0.01 µM is 73.9%.

For the molecule `O=c1c(-c2ccccc2)ccnn1CCCCN1CCN(c2ccccc2)CC1` [11d, 4-phenyl-2-[4-(4-phenylpiperazin-1-yl)butyl]-2,3-dihydropyridazin-3-one], the inhibition at 0.01 µM turned out to be 16.1%. Take `CN(CCCCn1nccc(-c2ccccc2)c1=O)Cc1ccccc1` [10a, 2-(4-(benzyl(methyl)amino)butyl)-4-phenylpyridazin-3(2H)-one]: the inhibition at 0.01 µM is 87.5%. On to `O=c1c(CCc2ccccc2)ccnn1CCCCN1CCOCC1` [21a, 2-[4-(morpholin-4-yl)butyl]-4-(2-phenylethyl)-2,3-dihydropyridazin-3-one], for which the inhibition at 0.01 µM worked out at 1.1%. For the molecule `O=c1c(-c2ccc(C(F)(F)F)cc2)ccnn1CCCCN1CCOCC1` [11n, 2-[4-(morpholin-4-yl)butyl]-4-[4-(trifluoromethyl)phenyl]-2,3-dihydropyridazin-3-one], the inhibition at 0.01 µM worked out at 6.13%. The same measure, in the same setting: the figure for `O=c1c(-c2ccccc2)ccnn1CCCCN1CCCCC1` [10d, 4-phenyl-2-(4-(piperidin-1-yl)butyl)pyridazin-3(2H)-one] is 28.3%; for `O=c1c(-c2ccoc2)ccnn1CCCCN1CCOCC1` [11p, 4-(furan-3-yl)-2-[4-(morpholin-4-yl)butyl]-2,3-dihydropyridazin-3-one] it is 15.6%. `O=c1c(-c2ccccc2)ccnn1CCCCN1CCC(c2ccccc2)CC1` [10s, 4-phenyl-2-(4-(4-phenylpiperidin-1-yl)butyl)pyridazin-3(2H)-one]: the inhibition at 0.01 µM was 64.6%. Regarding `O=c1c(-c2ccccc2)ccnn1CCCCN1CCC[C@H]2CCCC[C@@H]21` [11e, 2-{4-[(4aR,8aS)-decahydroquinolin-1-yl]butyl}-4-phenyl-2,3-dihydropyridazin-3-one], the inhibition at 0.01 µM turned out to be 7.4%. `O=c1c(-c2ccccc2Cl)ccnn1CCCCN1CCOCC1` [11m, 4-(2-chlorophenyl)-2-[4-(morpholin-4-yl)butyl]-2,3-dihydropyridazin-3-one]: the inhibition at 0.01 µM came out at 5.04%.

On to `O=c1c(-c2ccccc2)ccnn1CCCCN(Cc1ccccc1)CC1CCCO1` (stereo not shown) [10m, 2-(4-(benzyl((tetrahydrofuran-2-yl)methyl)amino)butyl)-4-phenylpyridazin-3(2H)-one], for which the inhibition at 0.01 µM came out at 28.8%.

Regarding `O=c1c(-c2cccc(Cl)c2)ccnn1CCCCN1CCOCC1` [11l, 4-(3-chlorophenyl)-2-[4-(morpholin-4-yl)butyl]-2,3-dihydropyridazin-3-one], the inhibition at 0.01 µM is 69.1%.

For the molecule `O=c1c(-c2ccccc2)ccnn1CCCN1CCCCCC1` [9b, 2-(3-(azepan-1-yl)propyl)-4-phenylpyridazin-3(2H)-one], the inhibition at 0.01 µM is 47.4%. For the molecule `O=c1c(-c2ccccc2)ccnn1CCCCN1C2CCC1CC(O)C2` (stereo not shown) [compound 16, 2-(4-(3-hydroxy-8-azabicyclo[3.2.1]octan-8-yl)butyl)-4-phenylpyridazin-3(2H)-one], the inhibition at 0.01 µM is 4.8%.

`O=c1c(-c2ccccc2)ccnn1CCCCN1CCc2ccccc2CC1` [10h, 4-phenyl-2-(4-(1,2,4,5-tetrahydro-3H-benzo[d]azepin-3-yl)butyl)pyridazin-3(2H)-one]: the inhibition at 0.01 µM was found to be 70.8%. With `O=c1c(-c2ccccc2)ccnn1CCCCN1CCCOCC1` [10c, 2-(4-(1,4-oxazepan-4-yl)butyl)-4-phenylpyridazin-3(2H)-one], the inhibition at 0.01 µM amounted to 40.3%. As to `O=c1c(-c2ccccc2)ccnn1CCCCN1CCC(Cc2ccccc2)CC1` [11a, 2-[4-(4-benzylpiperidin-1-yl)butyl]-4-phenyl-2,3-dihydropyridazin-3-one], the inhibition at 0.01 µM turned out to be 83.4%.

For the molecule `O=c1c(-c2ccc(Cl)cc2)ccnn1CCCCN1CCOCC1` [11k, 4-(4-chlorophenyl)-2-[4-(morpholin-4-yl)butyl]-2,3-dihydropyridazin-3-one], the inhibition at 0.01 µM was found to be 1.9%. `CN(CCCCn1nccc(-c2ccccc2)c1=O)C12CC3CC(CC(C3)C1)C2` [10j, 2-(4-(adamantan-1-yl(methyl)amino)butyl)-4-phenylpyridazin-3(2H)-one]: the inhibition at 0.01 µM came out at 4.9%. Turning to `CC1(C)CC2CC(C)(CN2CCCCn2nccc(-c3ccccc3)c2=O)C1` (stereo not shown) [10k, 4-phenyl-2-(4-(1,3,3-trimethyl-6-azabicyclo[3.2.1]octan-6-yl)butyl)pyridazin-3(2H)-one], the inhibition at 0.01 µM worked out at 3.7%. Take `COCC(c1ccccc1)N(C)CCCCn1nccc(-c2ccccc2)c1=O` (stereo not shown) [10o, 2-(4-((2-methoxy-1-phenylethyl)(methyl)amino)butyl)-4-phenylpyridazin-3(2H)-one]: the inhibition at 0.01 µM was 25.6%. Take `O=c1c(-c2ccsc2)ccnn1CCCCN1CCOCC1` [11o, 2-[4-(morpholin-4-yl)butyl]-4-(thiophen-3-yl)-2,3-dihydropyridazin-3-one]: the inhibition at 0.01 µM was 33.4%. For `O=c1c(-c2ccccc2)ccnn1CCCCN1CCCCCC1` [10e, 2-(4-(azepan-1-yl)butyl)-4-phenylpyridazin-3(2H)-one], the inhibition at 0.01 µM worked out at 30.2%. Regarding `O=c1c(-c2ccccc2)cncn1CCCCN1CCOCC1` [40b, 3-[4-(morpholin-4-yl)butyl]-5-phenyl-3,4-dihydropyrimidin-4-one], the inhibition at 0.01 µM came to 1.4%. Still for that read-out and setting: next, `CN(CCCn1nccc(-c2ccccc2)c1=O)Cc1ccccc1` [9a, 2-(3-(benzyl(methyl)amino)propyl)-4-phenylpyridazin-3(2H)-one]: 61.5%; `O=c1c(-c2ccccc2)ccnn1CCCCN1CCCCCCC1` [10f, 2-(4-(azocan-1-yl)butyl)-4-phenylpyridazin-3(2H)-one]: 70%; `O=c1cc(-c2ccccc2)cnn1CCCCN1CCOCC1` [compound 14, 2-(4-morpholinobutyl)-5-phenylpyridazin-3(2H)-one]: 2.1%. Turning to `O=c1c(-c2ccccc2)ccnn1CCCCNC12CC3CC(CC(C3)C1)C2` [10i, 2-(4-(adamantan-1-ylamino)butyl)-4-phenylpyridazin-3(2H)-one], the inhibition at 0.01 µM is 37.1%. Still for that read-out and setting: the figure for `O=c1c(-c2ccccc2)ccnn1CCCN1CCOCC1` [9c, 2-[3-(morpholin-4-yl)propyl]-4-phenyl-2,3-dihydropyridazin-3-one] is 7.6%; for `CN(CCCCn1nccc(-c2ccccc2)c1=O)CC1CCOCC1` [10q, 2-(4-(methyl((tetrahydro-2H-pyran-4-yl)methyl)amino)butyl)-4-phenylpyridazin-3(2H)-one] it is 29.4%. Consider `O=c1c(-c2ccccc2)ccnn1CCCCN1CCOC(c2ccccc2)C1` (stereo not shown) [10w, 4-phenyl-2-(4-(2-phenylmorpholino)butyl)pyridazin-3(2H)-one], for which the inhibition at 0.01 µM worked out at 37.6%.

Consider `CN(Cc1ccccc1)CC(O)CCn1nccc(-c2ccccc2)c1=O` (stereo not shown) [33a, 2-(4-(benzyl(methyl)amino)-3-hydroxybutyl)-4-phenylpyridazin-3(2H)-one], for which the inhibition at 0.01 µM turned out to be 12.3%. With `O=c1c(-c2ccccc2)ccnn1CCCCN1CCN(Cc2ccccc2)CC1` [10z, 2-[4-(4-benzylpiperazin-1-yl)butyl]-4-phenyl-2,3-dihydropyridazin-3-one], the inhibition at 0.01 µM was determined as 64.2%. On the same count and under the same terms, next, `O=c1c(-c2ccccc2)ccnn1CCCCN1CCCC(c2ccccc2)C1` (stereo not shown) [10r, 4-phenyl-2-(4-(3-phenylpiperidin-1-yl)butyl)pyridazin-3(2H)-one]: 78.7%; `CC1CN(CCCCn2nccc(-c3ccccc3)c2=O)CC(C)O1` (stereo not shown) [10x, 2-(4-(2,6-dimethylmorpholino)butyl)-4-phenylpyridazin-3(2H)-one]: 34.6%; `O=c1c(-c2ccccc2)cccn1CCCCN1CCOCC1` [41a, 1-[4-(morpholin-4-yl)butyl]-3-phenyl-1,2-dihydropyridin-2-one]: 3%. Same read-out and setting: the figure for `O=c1c(-c2ccccc2)ccnn1CCCCN1CCCC(CO)C1` (stereo not shown) [10t, 2-(4-(3-(hydroxymethyl)piperidin-1-yl)butyl)-4-phenylpyridazin-3(2H)-one] is 9.7%.

For `O=c1c(-c2ccccc2)ccnn1CCCCN1CCc2ccccc2C1` [10g, 2-(4-(3,4-dihydroisoquinolin-2(1H)-yl)butyl)-4-phenylpyridazin-3(2H)-one], the inhibition at 0.01 µM is 73.5%.

The assay is the same for the next values; noted with them: compound at 100 nM, [3H](+)pentazocine 15 nM, 37° C., 2 hours, read-out: Sigma-1 receptor % inhibition 100 nM.
With `Cc1cc(-c2ccccc2)c(=O)n(CCCCN(C)Cc2ccccc2)n1` [11v, 2-{4-[benzyl(methyl)amino]butyl}-6-methyl-4-phenyl-2,3-dihydropyridazin-3-one], the inhibition at 0.1 µM worked out at 86%. As for `O=c1c(-c2ccccc2)ccnn1CCCCN1CCCCC1CCO` (stereo not shown) [10u, 2-(4-(2-(2-hydroxyethyl)piperidin-1-yl)butyl)-4-phenylpyridazin-3(2H)-one], the inhibition at 0.1 µM came to 26.5%. On to `Cc1cc(-c2ccccc2)c(=O)n(CCCCN2CCCCCC2)n1` [11w, 2-[4-(azepan-1-yl)butyl]-6-methyl-4-phenyl-2,3-dihydropyridazin-3-one], for which the inhibition at 0.1 µM was 53.9%.

For `O=c1c(-c2ccccc2)ccnn1CCCCN1CCCOCC1` [10c, 2-(4-(1,4-oxazepan-4-yl)butyl)-4-phenylpyridazin-3(2H)-one], the inhibition at 0.1 µM was 80.3%. Consider `COCC(c1ccccc1)N(C)CCCCn1nccc(-c2ccccc2)c1=O` (stereo not shown) [10o, 2-(4-((2-methoxy-1-phenylethyl)(methyl)amino)butyl)-4-phenylpyridazin-3(2H)-one], for which the inhibition at 0.1 µM was found to be 68.3%.

For the molecule `CN(CCCCn1nccc(-c2ccccc2)c1=O)CC1CCOCC1` [10q, 2-(4-(methyl((tetrahydro-2H-pyran-4-yl)methyl)amino)butyl)-4-phenylpyridazin-3(2H)-one], the inhibition at 0.1 µM was determined as 79.6%. As for `O=c1c(-c2ccccc2)ccnn1CCCCN1CCOC(c2ccccc2)C1` (stereo not shown) [10w, 4-phenyl-2-(4-(2-phenylmorpholino)butyl)pyridazin-3(2H)-one], the inhibition at 0.1 µM was 79.4%. As to `O=c1c(-c2ccccc2)ccnn1CCCCN1CCCC(c2ccccc2)C1` (stereo not shown) [10r, 4-phenyl-2-(4-(3-phenylpiperidin-1-yl)butyl)pyridazin-3(2H)-one], the inhibition at 0.1 µM amounted to 92.1%. Take `CC1CN(CCCCn2nccc(-c3ccccc3)c2=O)CC(C)O1` (stereo not shown) [10x, 2-(4-(2,6-dimethylmorpholino)butyl)-4-phenylpyridazin-3(2H)-one]: the inhibition at 0.1 µM was 76.2%.

Take `O=c1c(-c2ccccc2)ccnn1CCCCN1CCCC(CO)C1` (stereo not shown) [10t, 2-(4-(3-(hydroxymethyl)piperidin-1-yl)butyl)-4-phenylpyridazin-3(2H)-one]: the inhibition at 0.1 µM came to 38.2%.

Source of the values: patent publication US12612371B2, “Sigma-1 receptor ligands and therapeutic uses thereof” (UNIVERSITE DE STRASBOURG, priority 2019, dated 2026).
